Reference: US20100113334A1, “METHODS FOR REDUCING OR PREVENTING TRANSMISSION OF NOSOCOMIAL PATHOGENS IN A HEALTH CARE FACILITY” (priority 2003, published 2010)
“Also recorded” adds a separate entry of the source. Where two headings read alike, the source gives them in different places.

Experiments:
S. aureus (MSSA) = conditions: 140 strains; cited from earlier work
VRE [1] = assay: Prevention of cross-transmission of VRE among mice in communal cages (Example 5); assay type: in vivo
Method: One set of experiments was performed to evaluate the ability of ramoplanin to prevent cross-transmission and overgrowth of VRE among mice in communal cages. High-density VRE stool colonization (˜7 log10 CFU/g) was established in 2 mice as described above. […] All mice were treated with subcutaneous clindamycin (1.4 mg) once daily for 5 days. After 9 days, all mice were separated into individual cages and supplied with regular drinking water.

[2] = system: clinical isolate VanA strain of E. faecium (VRE); assay: VRE suppression in a mouse model (Example 1); assay type: in vivo, mice
From the text: (§1) Mice were colonized with a clinical isolate VanA strain of E. faecium (VRE) isolated from a septicemic patient. A single inoculation of 5×10^8 cfu VRE by oral gavage (Day 0) was followed by treatment with vancomycin in the drinking water to maintain colonization. On day 22, each group received the same vancomycin-containing drinking water. […] The control group consisted of five mice, while the ramoplanin group consisted of four mice.

[3] = Storage stability of ramoplanin granules for oral solution; assay type: physicochemical
Method: The contents of the packet can be reconstituted with approximately 15-30 mL of water, and the resulting solution either consumed directly, or further diluted with water, cranberry juice, apple juice, or 7-Up prior to drinking. After consumption, the drug may be followed with subsequent amounts of these beverages or with food (e.g., cracker, bread). […] Alternatively, ramoplanin is available as capsules containing pharmaceutically acceptable excipients that are generally regarded as safe.

Lactobacillus species = assay: Effect on indigenous stool microflora (Example 3), quantitative culture; assay type: in vivo, mice
Method: Female CF1 mice (Harlan Sprague-Dawley, Indianapolis) weighing 25-30 g were used in these experiments. In order to minimize the risk of cross-contamination, mice were housed in individual cages with plastic filter tops. […] Quantitative cultures for facultative and aerobic gram-negative bacilli, enterococci, total anaerobes, Bacteroides species, Lactobacillus species, and Clostridium species were performed by plating serially-diluted specimens onto MacConkey agar (Difco Laboratories, Detroit), Enterococcosel agar (Becton Dickinson, Cockeysville, Md.), Brucella agar (Becton Dickinson), Bacteroides bile esculin agar, Rogosa agar, and Egg Yolk agar, respectively. For culture of anaerobes, stool samples were processed inside an anaerobic chamber (Coy Laboratories, Grass Lake, Mich.). Denaturing gradient gel electrophoresis (DGGE) of PCR-amplified bacterial ribosomal RNA genes from stool was performed as described by Donskey et al. (supra).

Bacillus spp. = conditions: 10 strains; cited from earlier work
K. pneumoniae P62 = assay: Establishment of colonization during ramoplanin treatment (Example 6); assay type: in vivo, mice; conditions: inoculated on day 2 of a 6-day course, 100 μg/ml in drinking water
Method: Quantification of Stool Pathogens: Fresh stool specimens were processed as described by Donskey et al. (supra). In order to quantify VRE, K. pneumoniae, and C. glabrata, diluted samples were plated onto Enterococcosel agar containing vancomycin 20 μg/mL, MacConkey agar containing ceftazidime 10 μg/mL, or Sabouraud Dextrose Agar (Becton, Dickinson, and Company, Sparks, Md.) containing piperacillin/tazobactam 16 μg/mL and linezolid 8 μg/mL, respectively. The plates were incubated in room air at 37° C. far 24 or 48 hours, and the number of colony-forming units (CFU) of each pathogen per gram of sample was calculated.
The density of the pathogens in stool was monitored every 3-4 days. Four mice were included in each treatment group.

[4] = In vitro interaction with human gastro-intestinal contents
From the text: The in vitro interaction of ramoplanin with human gastro-intestinal contents was studied.

[5] = system: facultative and aerobic gram-negative bacilli; assay: Effect on indigenous stool microflora (Example 3), quantitative culture; assay type: in vivo, mice
VRE [6] = assay: Effect of prior ramoplanin treatment on establishment of VRE colonization (Example 4); assay type: in vivo, mice; conditions: 10^7 CFU VRE 4 hours or 1, 2, 4 days after 7 days of 100 μg/ml; P>0.05 vs controls
From the text: The density of VRE in stool was monitored before and 1 and 4 days after inoculation. Four mice were included in each treatment group.

[7] = Oral administration to healthy male volunteers: absorption and excretion (Example 7, 7.1); assay type: in vivo, human
Method: Both bioassay and HPLC-based assays to assess the absorption, distribution, metabolism, and excretion were utilized in these studies.
The predetermined dose was reconstituted in 5 mL water per vial, mixed with 50 mL of sweetened, aromatized solution, and immediately administered orally to the subjects.

Total Enterococci = assay: VRE suppression in a mouse model (Example 1), total enterococci in faeces; assay type: in vivo, mice
From the text: as §1

S. aureus (MRSA) = conditions: 100 strains; cited from earlier work
[8] = system: VRE (VRE faecium, VRE faecalis); assay: In vitro activity (MIC90), internal Phase II isolates; assay type: cell-based, vancomycin-resistant Enterococcus; conditions: 235 strains, internal Phase II data
E. faecium = conditions: 10 strains; cited from earlier work
[9] = Day 22, prior to ramoplanin therapy
[10] = Day 29, completion of ramoplanin therapy
[11] = Day 36, 7 days after completion of ramoplanin therapy
[12] = 3 days after discontinuation (day 10)
[13] = single oral doses up to 1000 mg, multiple 200, 400 or 800 mg BID 10 days, bioassay and HPLC

Substance: Ramoplanin
- Ramoplanin MIC90 (S. aureus (MSSA)): 0.5 µg/mL
- VRE colonization in the colonized mouse added to the communal cage (VRE [1]; 100 μg/ml in drinking water, clindamycin-treated mice): rapidly inhibited
- VRE colonization of the other mice during ramoplanin treatment (VRE [1]; 100 μg/ml in drinking water, communal cage): none of the other mice developed detectable levels of colonization
- mice with VRE colonization detected after discontinuation of ramoplanin (VRE [1]; within 5 days after transfer to individual cages, 4 of 5 mice): 80%
- % Mice with VRE [2, 9]: 100%
- Enterococci: VRE [2, 9]: 9.7 log 10 cfu/g faeces
- Enterococci: VRE [2, 10]: <3.1 log 10 cfu/g faeces
- % Mice with VRE ([2]; Day 29, completion of ramoplanin therapy (15 mg/kg/day in drinking water, with 25 mg/kg/day vancomycin)): 0%
- % Mice with VRE [2, 11]: 100%
- Enterococci: VRE [2, 11]: 8.7 log 10 cfu/g faeces
- VRE concentration per gram of faeces ([2]; after one week of treatment, all animals): < 3.1 log units
- ramoplanin in stool (100 μg/ml dose, 3 days after discontinuation (day 10)): no ramoplanin was detectable
- concentration in stool, range (100 μg/ml dose, day 7 of treatment, n=5 mice): 156 to 312.5 µg/g
- concentration in stool, range (300 μg/ml dose, day 7, n=5 mice): 300 to 320 µg/g
- stability of 400 mg granulated powder packets ([3]; refrigerated conditions): stable for at least one year
- shelf life of reconstituted aqueous solution ([3]; stored at refrigerated conditions): 48 h
- Lactobacillus species in stool (Lactobacillus species; [12]): returned to pre-treatment levels
- Lactobacillus species in stool (Lactobacillus species; ramoplanin treatment, P<0.001): markedly reduced
- Ramoplanin MIC90 (Bacillus spp.): 0.25 µg/mL
- overgrowth of K. pneumoniae P62 in stool (K. pneumoniae P62): facilitated overgrowth
- binding to solid components of faeces [4]: bind reversibly
- microbiological activity in faeces [4]: microbiologically active in faeces
- mean density of total facultative and aerobic gram-negative bacilli in stool [5, 12]: not significantly different from baseline
- mean density of total facultative and aerobic gram-negative bacilli in stool ([5]; day 7 of treatment, P<0.05): increased significantly
- overgrowth / establishment of VRE stool colonization after prior ramoplanin treatment (VRE [6]): did not facilitate the establishment of stool colonization; also recorded: did not develop significant overgrowth of VRE
- absorption from the human gastro-intestinal tract ([7]; 200, 400 or 800 mg twice a day, ten days): very little, if any, is absorbed; also recorded: No absorption
- faecal concentration, average ([7]; Day 3, 200 mg group): 827 µg/g
- faecal concentration, average ([7]; Day 3, 400 mg group): 1742 µg/g
- faecal concentration, average ([7]; Day 3, 800 mg group): 1901 µg/g
- faecal concentration, average ([7]; Day 10, 200 mg group): 949 µg/g
- faecal concentration, average ([7]; Day 10, 400 mg group): 1417 µg/g
- faecal concentration, average ([7]; Day 10, 800 mg group): 2647 µg/g
- ramoplanin in urine ([7]; day 1 or 5 and pooled urine up to 72-96 after the last dose): no ramoplanin was detected
- ramoplanin in serum ([7]; days 1, 5, 10, 0.5-12 hours after the morning dose, 200, 400 or 800 mg twice a day): not detected
- faecal concentrations post-treatment ([7]; four days post-treatment): remained detectable in some subjects
- ramoplanin in serum/plasma [7, 13]: not detected
- ramoplanin in urine [7, 13]: not detected
- cumulative recovery in faeces ([7]; up to Day 4 post-treatment): 25 % of the administered dose
- Enterococci: Total Enterococci (Total Enterococci; [9]): 9.8 log 10 cfu/g faeces
- Enterococci: Total Enterococci (Total Enterococci; [10]): <2.4 log 10 cfu/g faeces
- Enterococci: Total Enterococci (Total Enterococci; [11]): 8.6 log 10 cfu/g faeces
- Ramoplanin MIC90 (S. aureus (MRSA)): 0.25 µg/mL
- Ramoplanin MIC90 [8]: 0.5 µg/mL
- Ramoplanin MIC90 (E. faecium): 0.5 µg/mL
